Reference: publication PMC4589318, “Synthesis of Triazole Schiff’s Base Derivatives and Their Inhibitory Kinetics on Tyrosinase Activity” (PLoS ONE, 2015)

Assays:
mushroom tyrosinase = mushroom tyrosinase (Agaricus bisporus, UniProt C7FF04); experiment: Diphenolase activity of mushroom tyrosinase (L-DOPA substrate); format: biochemical; settings: for Inhibition type: Lineweaver-Burk plots; for Inhibition type / KIS (inhibitor bonding with enzyme-substrate complex) / K IS (Table 1) / Inhibitory mechanisms: diphenolase; for KIS (inhibitor bonding with enzyme-substrate complex) / K IS (Table 1): L-DOPA; for KIS (inhibitor bonding with enzyme-substrate complex): secondary plot of intercepts; for K IS (Table 1): unit not given; for Inhibitory mechanisms: residual activity vs enzyme concentration
Description: L-Tyr and L-DOPA were used as the substrate to test the monophenolase and diphenolase activities of tyrosinase, respectively. The reaction system (3 ml) contained 1.1 mM L-Tyr or 0.5 mM L-DOPA, 25 mM PBS buffer (pH 6.8) and different concentrations of the inhbitors. For monophenolase and diphenolase activities, the final concentration of tyrosinase was 33.3μg/ml and 6μg/ml, respectively. The increased optical density with the oxidation of the substrates at 475 nm (the absorption coefficient was 3700 M^−1cm^−1) within a certain time were measured by DU800 spectrophotometer. […] The Michaelis-Menten constant Km of tyrosinase was determined by Lineweaver-Burk plot with different concentrations of L-DOPA as substrate and the inhibition constants KI and KIS were determined by the secondary plots of the apparent Km/Vm or 1/Vm versus the concentration of the inhibitors. The inhibition mechanism was reflected by the […] with various concentrations of mushroom tyrosinase.

[1] = ABTS free-radical scavenging antioxidant assay; settings: absorbance at 734 nm
Description: ABTS free-radical scavenging assay was used to test the antioxidant capacity of compounds Y1 to Y4. The method can be found in many articles. 7 mM ABTS and 2.45 mM ammonium persulfate were blended and stored in a dark place 16 hours, and then diluted by 80% ethanol to obtain the working solution which gave an absorbance of 0.69 at 734 nm. The working solution and compounds were mixed and allowed to react for ten minutes, and then measured the absorbance at 734 nm (AI) was measured using spectrophotometer. L-ascorbic acid and 80% ethanol was used as a positive and blank control, respectively. The A0 value was the blank absorbance. The antioxidant rate (%) = (A0-AI)/A0 * 100%

tyrosinase = target: T1, tyrosinase (Agaricus bisporus, UniProt C7FF04); experiment: Fluorescence quenching of tyrosinase; format: binding, mushroom; settings: 0.3 mg/ml tyrosinase, excitation 280 nm, inhibitor 10 to 70 μM
T1 construct: purchased Sigma Chemical Co. (St. Louis, MO, USA); host or cells: mushroom (natural source)
Description: Fluorescence quenching means the decrease of fluorescence intensity between the fluorescent molecules and solute molecules. This method was usually used to study the interaction between conformation of protein molecules and small molecules. Cary Eclipse fluorescence spectrophotometer was used to record the fluorescence intensities with an excitation wavelength of 280 nm and emission slit widths of 5 nm. […] In this study, the inhibitor was added in 0.3 mg/ml tyrosinase solution to detect the fluorescence intensity changes and the final concentrations of inhibitor range from 10 to 70 μM.
Fluorescence quenching can be divided into static quenching and dynamic quenching. Dynamic quenching is a process, which has energy or electron transfer, while the static quenching process will generate complexes without fluorescence. The quenching rate between the fluorescent molecules and quenching agents followed the Stem.Volmer curve equation [43]: F0/F=1+KSV[Q]
In the formula, F0 is the intensity of fluorescence without quenching agent, F is the fluorescence intensity after adding quencher, Ksv (L/mol) represents the relationship of dynamic equilibrium between biological macromolecules and fluorescence quencher molecules after diffusing and colliding, and [Q] is the concentration of quencher. From Fig 4D, the Ksv of Y1, Y2 and Y3 was determined to be 94437, 7160983 and 159186 L/mol, respectively.

Sequence of mushroom tyrosinase (C7FF04 1-392): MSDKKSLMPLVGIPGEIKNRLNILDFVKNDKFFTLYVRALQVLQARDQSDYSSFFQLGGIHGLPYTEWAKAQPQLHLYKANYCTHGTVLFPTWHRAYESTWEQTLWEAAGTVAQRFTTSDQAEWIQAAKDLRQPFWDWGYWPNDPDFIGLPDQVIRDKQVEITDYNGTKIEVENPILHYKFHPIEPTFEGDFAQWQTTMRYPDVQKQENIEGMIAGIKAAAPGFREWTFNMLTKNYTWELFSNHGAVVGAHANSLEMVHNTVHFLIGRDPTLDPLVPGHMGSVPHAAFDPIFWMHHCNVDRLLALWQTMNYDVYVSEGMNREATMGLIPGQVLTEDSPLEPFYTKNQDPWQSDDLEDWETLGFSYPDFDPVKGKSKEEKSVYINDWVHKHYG
T1 sequence (C7FF04 1-392 limits assumed): as the sequence (C7FF04 1-392) above

Inhibition type (mushroom tyrosinase) | KIS (inhibitor bonding with enzyme-substrate complex) (mushroom tyrosinase) [µM] | K IS (Table 1) (mushroom tyrosinase) | Inhibitory mechanisms (mushroom tyrosinase) | Ksv (Stern-Volmer quenching constant) (tyrosinase) [L/mol] | Compound | antityrosinase activity (diphenolase screen) (mushroom tyrosinase; L-DOPA substrate) | antioxidant capacity rank order [1]
Mixed | 21.04 | 21.04 | Reversible | 159186 | Nn1c(S)nnc1N/N=C\c1ccccc1O [Compound Y3, (Z)-2-((2-(4-amino-5-mercapto-4H-1,2,4-triazol-3-yl)hydrazono)methyl)phenol] |  | Y1 > Y2 > Y3 > Y4 > Vc > AHMZ
Mixed | 27.8 | 28 | Reversible |  | Nn1c(S)nnc1N/N=C\c1cccc(O)c1 [Compound Y2, (Z)-3-((2-(4-amino-5-mercapto-4H-1,2,4-triazol-3-yl)hydrazono)methyl)phenol] |  | Y1 > Y2 > Y3 > Y4 > Vc > AHMZ
Mixed | 4 | 4 | Reversible | 94437 | Nn1c(S)nnc1N/N=C\c1cccc(F)c1 [Compound Y1, (Z)-4-amino-5-(2-(3-fluorobenzylidene)hydrazinyl)-4H-1,2,4-triazole-3-thiol] |  | Y1 > Y2 > Y3 > Y4 > Vc > AHMZ

Continued, compound first:

Compound | Inhibition type (mushroom tyrosinase) | KIS (inhibitor bonding with enzyme-substrate complex) (mushroom tyrosinase) [µM] | K IS (Table 1) (mushroom tyrosinase) | Inhibitory mechanisms (mushroom tyrosinase) | Ksv (Stern-Volmer quenching constant) (tyrosinase) [L/mol] | antityrosinase activity (diphenolase screen) (mushroom tyrosinase; L-DOPA substrate) | antioxidant capacity rank order [1]
Oc1cccc(/C=N\Nc2nnc(S)n2/N=C/c2cccc(O)c2)c1 [Compound Y4, 3-((Z)-(2-(4-(((E)-3-hydroxybenzylidene)amino)-5-mercapto-4H-1,2,4-triazol-3-yl)hydrazono)methyl)phenol] |  |  |  |  |  | almost do not have antityrosinase activity | Y1 > Y2 > Y3 > Y4 > Vc > AHMZ
NNc1nnc(S)n1N [AHMZ, 4-Amino-3-hydrazino-5-mercapto-1,2,4-triazole, reference compound] |  |  |  |  |  |  | Y1 > Y2 > Y3 > Y4 > Vc > AHMZ
O=C1O[C@H]([C@@H](O)CO)C(O)=C1O [Vc, L-ascorbic acid, reference compound] |  |  |  |  |  |  | Y1 > Y2 > Y3 > Y4 > Vc > AHMZ
